Results reported in the NIST ThermoML archive (doi:10.1016/j.jct.2014.05.005).
Numbers after ± are expanded uncertainties.

What was measured:
[1] = for Normal melting temperature: Crystal, DTA; for mass density: 298.15 K, 101.33 kPa, Liquid, Vibrating tube method
[2] = Molar enthalpy of transition or fusion; conditions: Crystal; DSC

## Cn1c(=O)c2c(ncn2CCO)n(C)c1=O [7-(2-hydroxyethyl)-1,3-dimethylxanthine]
[1]
  Normal melting temperature: 162.7 ± 0.4 °C
[2]
  Molar enthalpy of transition or fusion: 7.8 ± 0.17 kcal/mol

## CCO [ethanol]
[1]
  mass density: 785.12 ± 1 kg/m3

## Cn1c(=O)c2[nH]cnc2n(C)c1=O [3,7-dihydro-1,3-dimethyl-1H-purine-2,6-dione]
[1]
  Normal melting temperature: 271.4 ± 0.4 °C
[2]
  Molar enthalpy of transition or fusion: 7.23 ± 0.158 kcal/mol

## CCCCCCCCO [octan-1-ol]
[1]
  mass density: 822.99 ± 1 kg/m3
